Legend:
[1] = Determination of aldehyde capture rate (nonenal as model aldehyde, HPLC quantification); settings: for Capture rate (slope of the capture curve per unit time): higher absolute value of the slope = higher capture rate; for Aldehyde consumption (100%): nonenal 0.025 mM, compound 0.05 mM, room temperature
Experimental: In the aldehyde capture test disclosed in the present invention, the stable lipid metabolite, nonenal, was used as the model aldehyde to react with the compound of the Example. The specific protocol was as follows.
0.05 mM of the compounds of the Examples of the present invention were precisely weighed respectively and dissolved in 1.2 mL of a mixed solution (v/v=1:1) of triolein (Aladdin, G105172-5g) and linoleic acid (Aladdin, L100442-25g), respectively. 2.5 mL of PBS (Solarbio) solution containing 20% Captisol® (Aladdin, C125030-25g) was added, and the solution was stirred at room temperature overnight. After the example compound was completely dissolved, 0.025 mM nonenal (Sigma, 255653-5G) was added, and the solution was stirred vigorously at room temperature. 200 μL of the sample was added to 800 μL of acetonitrile (Fisher, A995) at 0, 45, 90, 180, 225 and 465 minutes, respectively. The solution was mixed vigorously by vortex for 2 minutes, and centrifuged at a low speed of 1000 r/min for 3 minutes. The supernatant was transferred to an injection vial. The nonenal in the reaction mixture was analyzed quantitatively by high performance liquid chromatography. The adduct resulted from the example compound of the present invention and nonenal was analyzed qualitatively by high performance liquid chromatography-mass spectrometry.
In the developed detection method, the retention time of the model aldehyde nonenal was 2.42 minutes.

[2] = tested on: C48/80-induced allergic conjunctivitis (Wistar rats); assay: Therapeutic effect in C48/80-induced allergic conjunctivitis animal model; format: in vivo, rat; settings: female Wistar rats, C48/80 on cornea; 10 μL per eye 10 minutes after stimulation; examined 20 minutes after administration
Text: C48/80 is a polymer formed by the condensation of N-methyl-p-methoxyphenethylamine with formaldehyde, which acts directly on G protein and induces mast cell degranulation. After degranulation, the mast cell releases active substances such as histamine and kinin, which can cause acute type I allergic reactions such as telangiectasia and enhanced permeability. It can cause allergic conjunctivitis if applied topically to the ocular surface.
Female Wistar rats were used as the research subjects. Wistar rats (Vital River) were randomly divided into groups (5 animals per group, a total of 10 eyes). The groups are as follows: normal control group, model control group, positive drug group, and example administration group. The inflammation model was established in these groups except for the normal control group. Emedastine Difumarate Eye Drops (Emadine®, Alcon, H20181192) was used as the positive drug. Model establishment, administration and evaluation processes are as follows. […]
After 10 minutes of stimulation, different drug treatments were carried out according to the group settings. […] The clinical score was evaluated individually on the eyes of each animal according to the McDonald-Shadduck scoring system (GB/T 28538-2012).

[3] = tested on: noninfectious uveitis animal model (lewis rats); assay: Therapeutic effect in lipopolysaccharide-induced noninfectious uveitis animal model; format: in vivo, rat
Experimental: Female lewis rats were used as the research subjects. Lewis rats (Vital River) were randomly divided into groups (4 animals per group, a total of 8 eyes). The groups are as follows: normal control group, model control group, and example administration group. The inflammation model was established in these groups except for the normal control group.
(2) Formulation of drug solution: 10 mg of the compound of Example 4 of the present invention was weighed and dissolved in 1 mL of the vehicle stock solution, and the resulting solution was made up to 2 mL with water for injection. The content of each substance is as follows: Na2HPO4.12H2O 0.83%, NaH2PO4.2H2O 0.017%, ρ-cyclodextrin 9.5%, PEG-400 5.0%, active compound 0.5%.
The animal model was a noninfectious uveitis animal model established by intraperitoneal injection of lipopolysaccharide (derived from Escherichia coli, 055:B5, Sigma, L2880-100MG, injection dose: 2 mg/kg). At the same time of modeling, drug administration was carried out according to the above grouping situation. The normal control group was administered with normal saline, the model control group was administered with blank vehicle, and the example administration group was administered with the eye drops formulated above. The drug was administered by eye instillation to both eyes of each animal, and the eye instillation dose was 20 μL/eye. After the completion of eye instillation, the eyelids were closed for 20 seconds to prevent the loss of the drug. The administration was repeated at 3, 6 and 23 hours after modeling. […] The ocular inflammation of the animals in each group was examined with a slit lamp microscope (Jiangxi Jiangfeng, LYL-S), and evaluated according to the McDonald-Shadduck scoring system (GB/T 28538-2012).
The animals were sacrificed, and the bilateral eyeballs were enucleated. […] Quantitative analysis of total protein in aqueous humor was performed on the supernatant by a BCA protein quantification kit (Beyotime, P0010).

In the case of `CC(C)(O)c1nc2cc3oc(N4CCOCC4)nc3cc2cc1N` [Example 7, 2-(7-amino-2-morpholinooxazolo[4,5-g]quinolin-6-yl)propan-2-ol], the “Capture rate (slope of the capture curve per unit time)” value ([1]; 225 minutes) is reported as −0.03, the “Aldehyde consumption (100%)” value ([1]; 225 minutes) is reported as 7.12% and the “Capture rate (slope of the capture curve per unit time)” value ([1]; 465 minutes) is reported as −0.01. The “Aldehyde consumption (100%)” value ([1]; 465 minutes) was 8.34%.

In the case of `Cc1nc2cc3nc(C(C)(C)O)c(N)cc3cc2o1` [Example 2, 2-(7-amino-2-methyloxazolo[5,4-g]quinolin-6-yl)propan-2-ol], the “Capture rate (slope of the capture curve per unit time)” value ([1]; 225 minutes) is reported as −0.06, the “Aldehyde consumption (100%)” value ([1]; 225 minutes) is reported as 11.99% and the “Capture rate (slope of the capture curve per unit time)” value ([1]; 465 minutes) is reported as −0.03. For the same compound, the “Aldehyde consumption (100%)” value ([1]; 465 minutes) was 12.11%.

In the case of `Nc1cc2cc3c(cc2cc1C1(O)CC1)OCO3` [Example 9, 1-(7-aminonaphtho[2,3-d][1,3]dioxol-6-yl)cyclopropan-1-ol], the “Capture rate (slope of the capture curve per unit time)” value ([1]; 225 minutes) is reported as −0.06, the “Aldehyde consumption (100%)” value ([1]; 225 minutes) is reported as 15.43% and the “Capture rate (slope of the capture curve per unit time)” value ([1]; 465 minutes) is reported as −0.03. The “Aldehyde consumption (100%)” value ([1]; 465 minutes) was 16.60%.

For `CC(C)(O)c1cc2cc3c(cc2cc1N)OCCOCCOCCO3` [Example 8, 2-(14-amino-2,3,5,6,8,9-hexahydronaphtho[2,3-b][1,4,7,10]tetraoxacyclododecin-13-yl) propan-2-ol], the “Capture rate (slope of the capture curve per unit time)” value ([1]; 225 minutes) was −0.07, the “Aldehyde consumption (100%)” value ([1]; 225 minutes) was 19.78% and the “Capture rate (slope of the capture curve per unit time)” value ([1]; 465 minutes) was −0.04. For the same compound, the “Aldehyde consumption (100%)” value ([1]; 465 minutes) was 19.82%.

In the case of `CC(C)(O)c1nc2cc3c(cc2cc1N)OCO3` [Example 1, 2-(7-amino-[1,3]dioxolo[4,5-g]quinolin-6-yl)propan-2-ol], the “Capture rate (slope of the capture curve per unit time)” value ([1]; 225 minutes) is reported as −0.05, the “Aldehyde consumption (100%)” value ([1]; 225 minutes) is reported as 10.73% and the “Capture rate (slope of the capture curve per unit time)” value ([1]; 465 minutes) is reported as −0.04. For the same compound, the “Aldehyde consumption (100%)” value ([1]; 465 minutes) was 18.43%.

For `CC(C)(O)c1cc2cc3c(cc2cc1N)OCO3` [Example 4, 2-(7-aminonaphtho[2,3-d][1,3]dioxol-6-yl)propan-2-ol], the “Therapeutic effect on allergic conjunctivitis (McDonald-Shadduck clinical score, FIG. 2)” value [2] was “good therapeutic effect”, the “Capture rate (slope of the capture curve per unit time)” value ([1]; 225 minutes) was −0.25 and the “Aldehyde consumption (100%)” value ([1]; 225 minutes) was 52.65%. For the same compound, the “Capture rate (slope of the capture curve per unit time)” value ([1]; 465 minutes) was −0.14, the “Aldehyde consumption (100%)” value ([1]; 465 minutes) was 66.62% and the “Protein concentration in aqueous humor” value ([3]; female lewis rats, LPS 2 mg/kg i.p., 0.5% eye drops 20 μL/eye at 0, 3, 6, 23 h, 24 hours after modeling, BCA, mean ± standard deviation) was 840.6 ± 449.7 µg/mL. The “Ocular score (McDonald-Shadduck scoring system)” value ([3]; female lewis rats, LPS 2 mg/kg i.p., 0.5% eye drops 20 μL/eye at 0, 3, 6, 23 h, 24 hours after modeling, mean ± standard deviation) was 8.4 ± 2.8 and the “Therapeutic effect in the ocular inflammation animal model (score and aqueous humor protein, in words)” value ([3]; lewis rats, LPS-induced uveitis, eye drops) was “showing a therapeutic effect”.

For `Cn1cnc2cc3cc(N)c(C(C)(C)O)nc3cc21` [Example 5, 2-(7-amino-3-methyl-3H-imidazo[4,5-g]quinolin-6-yl)propan-2-ol], the “Capture rate (slope of the capture curve per unit time)” value ([1]; 225 minutes) was −0.08, the “Aldehyde consumption (100%)” value ([1]; 225 minutes) was 20.02% and the “Capture rate (slope of the capture curve per unit time)” value ([1]; 465 minutes) was −0.08. The “Aldehyde consumption (100%)” value ([1]; 465 minutes) was 36.01%.

With `CC(C)(O)c1nc2cc3nc(N4CCOCC4)oc3cc2cc1N` [Example 3, 2-(7-amino-2-morpholinooxazolo[5,4-g]quinolin-6-yl)propan-2-ol] the “Capture rate (slope of the capture curve per unit time)” value ([1]; 225 minutes) was −0.17, the “Aldehyde consumption (100%)” value ([1]; 225 minutes) was 35.38% and the “Capture rate (slope of the capture curve per unit time)” value ([1]; 465 minutes) was −0.10. The “Aldehyde consumption (100%)” value ([1]; 465 minutes) was 43.67%.

In the case of `CC(C)(O)c1cc2cc3c(cc2cc1N)OCCO3` [Example 6, 2-(8-amino-2,3-dihydronaphtho[2,3-b][1,4]dioxin-7-yl)propan-2-ol], the “Capture rate (slope of the capture curve per unit time)” value ([1]; 225 minutes) is reported as −0.07, the “Aldehyde consumption (100%)” value ([1]; 225 minutes) is reported as 16.48% and the “Capture rate (slope of the capture curve per unit time)” value ([1]; 465 minutes) is reported as −0.05. The “Aldehyde consumption (100%)” value ([1]; 465 minutes) was 22.01%.

— patent US20230021669A1, “TRICYCLIC COMPOUND, AND PREPARATION METHOD THEREFOR AND MEDICAL USE THEREOF” (The National Institutes of Pharmaceutical R&D Co., Ltd., priority 2019, published 2023)
